# Measured values published in patent US6495699B2, “Metalloproteinase inhibitors, pharmaceutical compositions containing them, and their use” (Agouron Pharmaceuticals Inc., priority 1996, dated 2002).
# Key:
# [1] = target: T1, human collagenase-3 (Coll3) (Homo sapiens, UniProt P45452); test: Fluorometric MCA-peptide hydrolysis assay, collagenase-3 (Coll3); type: biochemical; conditions: apparent Ki; 10 μM MCA peptide substrate, 37° C., pH 7.5; read-out: Coll3 (Ki,app)
# T1 construct: the catalytic domain was liberated by treatment with 2 mM APMA at room temperature overnight; ubiquitin (N, cleaved yes); made in house; host or cells: E. coli
# [2] = target: T2, Human matrilysin (Matr) (Homo sapiens, UniProt P09237); test: Fluorometric MCA-peptide hydrolysis assay, matrilysin (Matr); type: biochemical; conditions: apparent Ki; 10 μM MCA peptide substrate, 37° C., pH 7.5; read-out: Matr (Ki,app)
# T2 construct: the catalytic domain was liberated by treatment with 2 mM APMA at 37° C. for 2 hours; ubiquitin (cleaved yes); made in house; host or cells: E. coli
# T2 sequence (P09237 95-267): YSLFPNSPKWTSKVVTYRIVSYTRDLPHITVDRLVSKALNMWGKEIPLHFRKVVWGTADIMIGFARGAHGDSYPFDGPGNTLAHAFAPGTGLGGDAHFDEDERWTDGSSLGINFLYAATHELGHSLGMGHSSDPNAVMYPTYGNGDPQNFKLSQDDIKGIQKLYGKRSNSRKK
# In short: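 Catalytic domain of E. coli-expressed human matrilysin assayed at 37° C, pH 7.5 Tricine buffer, 2% DMSO, with 10 μM MCA-Pro-Leu-Gly-Leu-DPA-Ala-Arg-NH2; fluorescence ex 328/em 393 nm over 60 min. Ki,app from steady-state rates fitted to competitive inhibition or Morrison tight-binding equation.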
smiles,measurement,setting,value
"CNC(=O)[C@@H](NC(=O)[C@@H](CC(=O)O)n1ccc(-c2ccc(-c3ccc(C#N)cc3)cc2)c1)C(C)(C)C [Example 5(c), 3(R)-[3-(4′-Cyanobiphenyl-4-yl)-1H-pyrrol-1-yl]-N-[2,2-dimethyl-1(S)-(methylcarbamoyl)propyl]succinamic Acid]",Ki,[1],0.049 nM
same,Ki,[2],305 nM
